Measurements as given in patent publication US20080044484A1, “Use of polymeric nanoparticles for vaccine delivery” (THE REGENTS OF THE UNIVERSITY OF CALIFORNIA, priority 2004, published 2008).

Tests used:
[1] = system: K562-A2 cells pulsed with STEAP peptide; assay: In vitro induction of STEAP peptide-specific CTL, LDH-release cytotoxicity assay; settings: for Percent LDH released from K562-A2 pulsed with peptide: K562-A2 pulsed with corresponding STEAP peptide 2 hours at 37° C.; for Percent LDH released from K562-A2 pulsed with peptide / Percent LDH released from K562-A2: CTL specific for the peptide, 4-hour LDH-release assay; for Induction of peptide-specific CTL: in vitro immunization of PBMC; for Percent LDH released from K562-A2: non-pulsed K562-A2 targets
DU145 (HLA-A2−) = assay: LDH-release cytotoxicity assay of STEAP-specific CTL against HLA-A2-negative control cell line; assay type: cell-based, human; settings: CTL specific for the peptide; 4-hour LDH-release assay
Description: (§1) It was tested whether the STEAP-derived peptides can induce potent CTL capable of recognizing and killing prostate cancer cells in vitro. CTL lines selected for their ability to lyse peptide-pulsed target cells were used as effectors in LDH-release cytotoxicity assays against the cancer cell lines. The HLA-A2+ cancer cell line LnCAP was used, with the HLA-A2−negative cancer cell line DU145 as a control (Table 29).

[2] = system: K562-A2 cells pulsed with STEAP peptide; assay: Blocking of CTL lysis with antibodies BB7.2 / IVA12, LDH-release assay; assay type: cell-based, human; settings: for Percent LDH released from K562-A2 pulsed +IVA12: anti-HLA class II antibody IVA12 added to peptide-pulsed targets before 4-hour LDH-release assay; for Percent LDH released from K562-A2 pulsed +BB7.2: anti-HLA-A2 antibody BB7.2 added to peptide-pulsed targets before 4-hour LDH-release assay
Description: As an additional control the anti-HLA class II antibody IVA12 was used. With these experiments, it was confirmed that the STEAP-specific CTL can recognize and kill target cells in a class I-restricted fashion (Table 30).

LnCap (HLA-A2+) = assay: LDH-release cytotoxicity assay of STEAP-specific CTL against prostate cancer cell line; assay type: cell-based, human; settings: CTL specific for the peptide; 4-hour LDH-release assay
Description: as §1

TAP (human) = TAP (human) (UniProt Q03518); assay: cell-based or functional assay
[3] = system: ICP47-transfected cells MCF7; assay: Functional blockade of TAP by ICP47, 51Cr-release from peptide-loaded cells; assay type: cell-based, human; settings: for Percent 51Cr Released From ICP47-transfected MCF7 cells loaded with the construct: CTL reactive against the corresponding HER2/neu peptide, 3 days after peptide loading, 6-hour assay
Description: Another aspect in these studies was to determine the mechanisms of enhancement of the antigen presentation by the fusion peptides in human tumor cell lines. Therefore, a new test system was developed utilizing the Herpes Simplex virus (HSV) protein ICP47. ICP47 is a cytoplasmic protein, which interferes with antigen presentation by physically associating with TAP within the cell and inhibiting peptide transport across the ER-membrane. By transfecting the ICP47 gene into several cancer cell lines a novel system for screening different fusion peptides for TAP-independent translocation of peptide antigens through the ER-membrane was generated.
The expression of these antigens was detected by ^51Cr-release assays.

T2 cells [4] = assay: IFNγ release by CTL (ELISA) after incubation with peptide-loaded T2 cells; assay type: cell-based, human; settings: CTL elicited with the corresponding HER2/neu peptide, 20 h, 10^5 CTL/well
Description: In interferon gamma-release assays, 10^5 HER2/neu-specific CTL were co-incubated with 10^5 peptide-loaded T2 cells for 20 hours at 37° C. The concentrations of human interferon gamma in co-cultured supernatants were then determined by ELISA.

[5] = system: breast cancer cells MDA-MB-231; assay: 51Cr-release assay, MDA-MB-231 cells loaded or pulsed with signal sequence constructs; assay type: cell-based, human; settings: loading; days 1-8 after loading
Description: ^51Cr-release assays were used to test to see if the low HER2/neu-expressing breast cancer cells MDA-MB-231 can be recognized more efficiently by the HER2/neu-specific CTL after loading with the fusion peptides.
The lysis of the tumor cells by the HER2/neu-specific CTL was monitored in a conventional ^51Cr-labeling release assay. Briefly, peptide-loaded tumor cells were added to serially diluted effectors in 96-well microplates. After a 6-h incubation at 37° C., supernatants were harvested and counted in a gamma counter. Results are expressed as the percentage of specific lysis and determined as follows: [(experimental cpm−spontaneous cpm)/(maximum cpm−spontaneous cpm)]×100.
Peptide-loaded breast cancer cells MDA-MB-231 were tested for their ability to present HER2/neu peptides at different periods of time after loading or pulsing.

[6] = system: breast cancer cells MDA-MB-231; assay: IFNγ release by CTL (ELISA) after incubation with peptide-loaded MDA-MB-231 cells; assay type: cell-based, human; settings: CTL elicited with the corresponding HER2/neu peptide, 20 h, 10^5 CTL/well
Description: In interferon gamma release assays, 10^5 HER2/neu-specific CTL were co-incubated with 10^5 peptide-loaded tumor cells for 20 hours at 37° C. The concentration of human interferon gamma in co-cultured supernatants was then determined by ELISA.

T2 cells [7] = assay: 51Cr-release assay, T2 cells loaded or pulsed with signal sequence constructs, at periods after loading; assay type: cell-based, human; settings: loading into the cytosol; days 1-8 after loading
Description: By “loading” of the fusion peptides into the cytosol of T2 cells, cancer cells and dendritic cells is meant use of a technology called “osmotic lysis of pinocytic vesicles.” T2 cells were exposed to hypertonic medium containing the peptide constructs. Pinocytic vesicles form in this medium, and because of their increased internal osmotic pressure, they break in the cytosol when the cells are placed in hypotonic culture medium.
The induction of CTL in human PBMC was monitored in a conventional ^51Cr-labeling release assay. Briefly, peptide-pulsed TAP^−/HLA-A2.1^+ human T2 cells were incubated with 10 μg of HER2/neu peptides or the MART-1 control peptide for 90 min during labeling with ^51Cr. After washing, the target cells were added to serially diluted effectors in 96-well microplates. After a 6-h incubation at 37° C., supernatants were harvested and counted in a gamma counter. Results are expressed as the percentage of specific lysis and determined as follows: [(experimental cpm−spontaneous cpm)/(maximum cpm−spontaneous cpm)]×100.
Peptide-loaded or pulsed T2 cells were tested for their ability to present HER2/neu peptides at different periods of time after loading or pulsing.

HLA-A2.1 (human) = assay: cell-based or functional assay

TAP (human), sequence (Q03518 whole entry, chain 1 of 2): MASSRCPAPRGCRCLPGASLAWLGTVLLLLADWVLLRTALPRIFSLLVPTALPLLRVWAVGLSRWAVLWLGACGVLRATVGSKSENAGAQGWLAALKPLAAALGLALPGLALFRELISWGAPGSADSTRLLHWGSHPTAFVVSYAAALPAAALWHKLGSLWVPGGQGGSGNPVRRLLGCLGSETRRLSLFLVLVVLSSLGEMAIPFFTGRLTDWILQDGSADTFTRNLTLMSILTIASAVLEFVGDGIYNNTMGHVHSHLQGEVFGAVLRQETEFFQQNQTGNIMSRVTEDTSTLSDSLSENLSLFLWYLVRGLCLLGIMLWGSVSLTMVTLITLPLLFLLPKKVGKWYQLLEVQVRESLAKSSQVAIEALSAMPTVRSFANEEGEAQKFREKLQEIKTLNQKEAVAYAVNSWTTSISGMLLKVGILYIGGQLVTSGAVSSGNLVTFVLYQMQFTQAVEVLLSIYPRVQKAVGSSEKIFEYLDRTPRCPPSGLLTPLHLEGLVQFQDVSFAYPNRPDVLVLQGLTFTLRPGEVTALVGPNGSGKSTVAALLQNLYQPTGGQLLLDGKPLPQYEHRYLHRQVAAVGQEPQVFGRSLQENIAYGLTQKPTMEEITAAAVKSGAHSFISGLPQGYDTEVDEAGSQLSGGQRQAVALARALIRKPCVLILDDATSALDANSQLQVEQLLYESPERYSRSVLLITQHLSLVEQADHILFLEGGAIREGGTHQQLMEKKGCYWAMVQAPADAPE
TAP (human), sequence (Q03519 whole entry, chain 2 of 2, further chain): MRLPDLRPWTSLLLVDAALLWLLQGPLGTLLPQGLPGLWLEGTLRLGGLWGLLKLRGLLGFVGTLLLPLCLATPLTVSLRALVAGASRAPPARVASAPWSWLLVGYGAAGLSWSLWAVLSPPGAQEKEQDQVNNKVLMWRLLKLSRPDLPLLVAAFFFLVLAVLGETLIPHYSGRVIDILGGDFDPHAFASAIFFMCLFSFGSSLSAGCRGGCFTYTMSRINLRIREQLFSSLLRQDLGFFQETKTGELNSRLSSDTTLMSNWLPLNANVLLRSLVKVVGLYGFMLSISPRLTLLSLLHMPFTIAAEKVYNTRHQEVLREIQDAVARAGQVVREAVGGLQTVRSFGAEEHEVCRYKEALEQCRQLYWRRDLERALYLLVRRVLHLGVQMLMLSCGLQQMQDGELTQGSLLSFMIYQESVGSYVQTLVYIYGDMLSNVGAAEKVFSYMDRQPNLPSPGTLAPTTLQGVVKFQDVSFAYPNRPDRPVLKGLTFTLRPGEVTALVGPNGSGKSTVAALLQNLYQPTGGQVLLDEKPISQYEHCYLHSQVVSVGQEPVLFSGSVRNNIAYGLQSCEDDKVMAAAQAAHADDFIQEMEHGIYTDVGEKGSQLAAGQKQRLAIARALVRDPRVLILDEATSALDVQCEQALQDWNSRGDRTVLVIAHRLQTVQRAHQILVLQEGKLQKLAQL

Row | Substance | Percent LDH released from K562-A2 pulsed with peptide [1] | Induction of peptide-specific CTL [1] | Percent LDH released from K562-A2 [1] | Percent LDH released from DU145 (HLA-A2−) (DU145 (HLA-A2−)) | Percent LDH released from K562-A2 pulsed +IVA12 [2] | Percent LDH released from K562-A2 pulsed +BB7.2 [2] | Percent LDH released from LnCap (HLA-A2+) (LnCap (HLA-A2+)) | Release of IFNγ by CTL, T2 cells loaded with the peptide (T2 cells [4]; Day 1 after peptide loading) | Release of IFNγ by CTL, T2 cells loaded with the peptide (T2 cells [4]; Day 3 after peptide loading) | Release of IFNγ by CTL, T2 cells loaded with the peptide (T2 cells [4]; Day 5 after peptide loading) | Release of IFNγ by CTL, T2 cells loaded with the peptide (T2 cells [4]; Day 8 after peptide loading) | also measured
1 | FLPGVIAAI [STEAP130-138 - 1F] | 75% | induced potent peptide-specific CTL | 4% | −1% | 69% | 2% | 73% |  |  |  |  | 
2 | FLWGVIAAV [STEAP130-138 - 1F/3W/9V] | 74% | induced potent peptide-specific CTL | 1% | 1% | 75% | 1% | 84% |  |  |  |  | 
3 | Herpes Simplex virus (HSV) protein ICP47 (from UniProt P03170 1-88) |  |  |  |  |  |  |  |  |  |  |  | Percent 51Cr released from MCF7-ICP47 (CTL369-377, E:T 20:1; 29 for untransfected MCF7) (percent 51Cr released) (TAP (human)): 3; Percent 51Cr released from MCF7-ICP47 (CTL369-377, E:T 40:1; 62 for untransfected MCF7) (percent 51Cr released) (TAP (human)): 3; Percent 51Cr released from MCF7-ICP47 (CTL654-662, E:T 20:1; 31 for untransfected MCF7) (percent 51Cr released) (TAP (human)): 2; Percent 51Cr released from MCF7-ICP47 (CTL654-662, E:T 40:1; 74 for untransfected MCF7) (percent 51Cr released) (TAP (human)): 4
4 | LLNWAYQQV (listed as Homo sapiens) [STEAP192-200] | 56% | induced potent peptide-specific CTL | 8% | 18% | 30% | 7% | 43% |  |  |  |  | Induction of peptide-specific CTL in patients with prostate cancer ([1]; number of patients): three out of three
5 | LLSFFFAVL (listed as Homo sapiens) [STEAP166-174] | 43% | induced potent peptide-specific CTL | 3% | 4% | 47% | 11% | 65% |  |  |  |  | 
6 | M A IISAVVGIL A A A A A G (MAIISAVVGILAAAAAG) [HER654-662-IN-AF] |  |  |  |  |  |  |  | 3321 pg/mL | 2981 pg/mL | 1892 pg/mL | 881 pg/mL | Restoration of antigen presentation in ICP47-transfected breast cancer cells ([3]; 51Cr-release): able to restore the antigen presentation; Percent 51Cr Released From ICP47-transfected MCF7 cells loaded with the construct ([3]; E:T 20:1): 22%; Percent 51Cr Released From ICP47-transfected MCF7 cells loaded with the construct ([3]; E:T 40:1): 66%; Recognition by CTL of MDA-MB-231 cells loaded with the peptide (51Cr-release) [5]: effective; Release of IFNγ by CTL, MDA-MB-231 cells loaded with the peptide ([6]; Day 1 after peptide loading): 3321 pg/mL; Release of IFNγ by CTL, MDA-MB-231 cells loaded with the peptide ([6]; Day 3 after peptide loading): 2994 pg/mL; Release of IFNγ by CTL, MDA-MB-231 cells loaded with the peptide ([6]; Day 5 after peptide loading): 1933 pg/mL; Release of IFNγ by CTL, MDA-MB-231 cells loaded with the peptide ([6]; Day 8 after peptide loading): 899 pg/mL; Recognition by CTL of T2 cells loaded with the peptide (51Cr-release) (T2 cells [7]): effective
7 | MA HLYQGCQVV AAAAAG (MAHLYQGCQVVAAAAAG) [HER48-56-IN-AF] |  |  |  |  |  |  |  | 3488 pg/mL | 1229 pg/mL | 1010 pg/mL | 718 pg/mL | Recognition by CTL of T2 cells loaded with the peptide (51Cr-release) (T2 cells [7]): effective
8 | MRYMILGLLALAAVCSA IISAVVGIL (MRYMILGLLALAAVCSAIISAVVGIL) [ES-HER654-662] |  |  |  |  |  |  |  | 2667 pg/mL | 2518 pg/mL | 1245 pg/mL | 581 pg/mL | Percent 51Cr Released From ICP47-transfected MCF7 cells loaded with the construct ([3]; E:T 20:1): 2%; Percent 51Cr Released From ICP47-transfected MCF7 cells loaded with the construct ([3]; E:T 40:1): 3%; Release of IFNγ by CTL, MDA-MB-231 cells loaded with the peptide ([6]; Day 1 after peptide loading): 2767 pg/mL; Release of IFNγ by CTL, MDA-MB-231 cells loaded with the peptide ([6]; Day 3 after peptide loading): 2622 pg/mL; Release of IFNγ by CTL, MDA-MB-231 cells loaded with the peptide ([6]; Day 5 after peptide loading): 1445 pg/mL; Release of IFNγ by CTL, MDA-MB-231 cells loaded with the peptide ([6]; Day 8 after peptide loading): 578 pg/mL
9 | MTNKCLLQIALLLCFSTTALS IISAVVGIL (MTNKCLLQIALLLCFSTTALSIISAVVGIL) [IS-HER654-662] |  |  |  |  |  |  |  | 2590 pg/mL | 1990 pg/mL | 1557 pg/mL | 615 pg/mL | Percent 51Cr Released From ICP47-transfected MCF7 cells loaded with the construct ([3]; E:T 20:1): 3%; Percent 51Cr Released From ICP47-transfected MCF7 cells loaded with the construct ([3]; E:T 40:1): 5%; Release of IFNγ by CTL, MDA-MB-231 cells loaded with the peptide ([6]; Day 1 after peptide loading): 2678 pg/mL; Release of IFNγ by CTL, MDA-MB-231 cells loaded with the peptide ([6]; Day 3 after peptide loading): 1974 pg/mL; Release of IFNγ by CTL, MDA-MB-231 cells loaded with the peptide ([6]; Day 5 after peptide loading): 1604 pg/mL; Release of IFNγ by CTL, MDA-MB-231 cells loaded with the peptide ([6]; Day 8 after peptide loading): 628 pg/mL
10 | YLPGVIAAI (listed as Homo sapiens) [STEAP130-138] | 63% | induced potent peptide-specific CTL | 1% | −1% | 37% | 2% | 53% |  |  |  |  | 
11 | YLPGVIAAV [STEAP130-138 - 9V] | 53% | induced potent peptide-specific CTL | 1% | −2% | 47% | 1% | 68% |  |  |  |  | 
12 | YLWGVIAAI [STEAP130-138 - 3W] | 63% | induced potent peptide-specific CTL | 4% | −2% | 64% | 5% | 69% |  |  |  |  | 
13 | anti-HLA-A2 antibody BB7.2 |  |  |  |  |  |  |  |  |  |  |  | Percent LDH released from peptide-pulsed K562-A2 +BB7.2 (CTL specific for STEAP130-138 -1F/3W/9V; 74 without antibody) (percent LDH released) (HLA-A2.1 (human)): 1; Percent LDH released from peptide-pulsed K562-A2 +BB7.2 (CTL specific for STEAP130-138 -1F; 75 without antibody) (percent LDH released) (HLA-A2.1 (human)): 2; Percent LDH released from peptide-pulsed K562-A2 +BB7.2 (CTL specific for STEAP130-138 -3W; 63 without antibody) (percent LDH released) (HLA-A2.1 (human)): 5; Percent LDH released from peptide-pulsed K562-A2 +BB7.2 (CTL specific for STEAP130-138 -9V; 53 without antibody) (percent LDH released) (HLA-A2.1 (human)): 1; Percent LDH released from peptide-pulsed K562-A2 +BB7.2 (CTL specific for STEAP130-138; 63 without antibody) (percent LDH released) (HLA-A2.1 (human)): 2; Percent LDH released from peptide-pulsed K562-A2 +BB7.2 (CTL specific for STEAP192-200; 56 without antibody) (percent LDH released) (HLA-A2.1 (human)): 7
